Laboratory results: patent US8969004B2, “Detection of immobilized nucleic acid” (Life Technologies Corporation, priority 2004, dated 2015)
Entries after “also recorded” stand apart in the source; their conditions may differ. Like-named read-outs stand apart in the source and are kept apart here.

Legend:
[1] = tested on: Salmonella typhimurium histidine auxotrophs TA97a, TA98, TA100, TA102, TA1535, TA1537 and TA1538; experiment: Salmonella/Mammalian Microsomal Reverse Mutation Assay (Ames Test); type: cell-based; details: for Ames test mutagenicity classification, early screens: early screens of nucleic acid complexing compounds; for increase in revertants compared to vehicle control (DMSO), TA97a: tester strain TA97a; for increase in revertants compared to vehicle control (DMSO), TA98: tester strain TA98; for increase in revertants compared to vehicle control (DMSO), TA100: tester strain TA100; for increase in revertants compared to vehicle control (DMSO), TA102: tester strain TA102; for increase in revertants compared to vehicle control (DMSO), TA1535: tester strain TA1535; for increase in revertants compared to vehicle control (DMSO), TA1537: tester strain TA1537; for increase in revertants compared to vehicle control (DMSO), TA1538: tester strain TA1538
Description: The Ames assay was performed using the method described by Ames (Ames et al Mutation Research 31 (1975) 347-364; Levin et al. PNAS 79 (1982) 7445-7449; Maron and Ames, Mutation Research 113 (1983) 173-215). Tester stains used were Salmonella typhimurium histidine auxotrophs TA97a, TA98, TA100, TA102, TA1535, TA1537 and TA1538. […] The test compounds, test vehicle and S9 (when appropriate) were combined with molten agar and then overlaid over a minimal agar plate. Following incubation at 37° C., revertant colonies were counted. When S9 was not used, 100 μl of tester strain and 50 μl of control or test compound were added to 2.5 ml of selective top agar. When S9 was used, 500 μl of S9 mix, 100 μl of tester strain and 50 μl of control or test compound was added to 2.0 ml of selective top agar. The top agar was then overlaid onto the surface of 25 ml of minimal bottom agar contained in a 15×100 mm Petri dish. The inverted plates were incubated for 52±4 hr at 37±2° C.
The number of revertants was counted and the test compounds were either considered non-mutagenic or mutagenic. The criteria for determining if a test compound was mutagenic was based on a 2-fold increase in mean revertants per plate for at least one tester strain (TA97a, TA98, TA100 and TA102) over the mean revertants per plate of the appropriate vehicle control. For tester strains TA1535, TA1537 and TA 1538 a positive mutant was identified by a 3-fold increase in mean revertants per plate compared to the appropriate vehicle control. In addition, the increase in the mean number of revertants per plate needed to be accompanied by a dose response to increasing concentrations of the test compound. […] Thiazole orange was also considered mutagenic for two of the tester strains in the absence of S9. Thus, compared to ethidium bromide, thiazole orange is 3-4 times less mutagenic and Compound 1 is 4-5 times less mutagenic. Ethidium bromide and Sybr Green I had previously been tested wherein Sybr Green I was considered a weak mutagen (Singer et al. Mutation Research 439 (1999) 37-47).

[2] = tested on: fathead minnows (Pimephakes promelas); experiment: Hazardous Waste Screening Test (toxicity to aquatic life); type: in vivo
Description: (§1) Compound 1 was tested to determine whether or not the compound was hazardous or toxic to aquatic life. Ten fathead minnows (Pimephakes promelas) were placed each in a 8 liter tank containing vehicle control and a concentration of Compound 1 at 250 mg/L, 500 mg/L and 750 mg/L. After a 96 hour exposure period the number of viable minnows were counted. The survival rate of the minnows for the control and Compound 1 was 100%. Thus, compound 1 has a LC50 value […], which is classified as not hazardous under CCR Title 22 acute toxicity to aquatic life.

[3] = as above; type: in vivo, Pimephakes promelas; details: fathead minnow (Pimephakes promelas), in vivo, other: exposure in tank water containing the compound; fathead minnows; 96 hour exposure
Description: as §1

[4] = NPDES testing for compliance with the Clean Water Act
Description: The testes were performed according to EPA protocols cited in Table 9.

[5] = tested on: Syrian hamster embryo (SHE) cells; details: for MT Frequency (%) / RPE (relative plating efficiency): Syrian hamster, 7 day
DNA in a 1% agarose gel = experiment: Detection of DNA separated and immobilized in an agarose gel; details: for ability to detect nucleic acid immobilized in a gel by electrophoresis: excited with UV light, about 300 nm
[6] = tested on: MRC5 human lung fibroblast cells; experiment: Cell Permeability on Live Eukaryotic Cells; type: cell-based; details: 0.5, 1.0, 5.0 and 10.0 μM; 5 minutes at 37° C.; fluorescence microscopy
Description: MRC5 human lung fibroblast cells were harvested and grown in complete culture media (DMEM+10% FBS) for one day after seeding coverslips. Cells were then removed from complete media and placed in Hank's balanced salt solution w/sodium bicarbonate (HBSS) supplemented with 5 mM HEPES, 100 uM L-glutamine and 100 uM succinate containing varying concentrations of Compound 1. Concentrations tested included 0.5, 1.0, 5.0 and 10.0 μM. Cells were incubated for 5 minutes at 37° C./[…] Cells were washed 3×30 seconds in HBSS and mounted on microscope slides in HBSS and sealed with paraffin. After mounting, slides were examined on a Nikon Eclipse 800 upright fluorescent microscope and imaged with standard FITC and TRITC filter sets, a Princeton Instrument MicroMax cooled CCD camera, and Universal Imaging MetaMorph imaging software. […] Signal associated with Compound 1 is detectable with both FITC and TRITC filter sets with greater signal intensity using the FITC set. Regardless of concentration, nucleolar labeling seems to be the most prominent and appears to become slightly more prominent at lower concentrations. Off cell background was minimal in all cases.

[7] = tested on: cultured human lymphocytes; experiment: Screening Assay for Chromosomal Aberrations in Cultured Human Peripheral Blood Mononuclear Cells (PBMC); type: cell-based
Description: Human venous blood from healthy adult volunteers was drawn in heparinized vacutainers. The whole blood cultures were initiated in 15 ml centrifuge tubes by adding approximately 0.3 ml of fresh heparinized blood into a sufficient volume of culture medium, to that the final volume was 5 mL in the assay with and without metabolic activation after the addition of the test compound. The culture medium was RPMI 1640 supplemented with approximately 20% heat-inactivated fetal bovine serum (FBS), penicillin (100 units/mL), streptomycin (100 μg/mL), L-glutamine (2 mM) and 2% phytohemagglutinin M (PHA-M). The cultures were incubated with loose caps at 37° C.±2° C. in a humidified chamber of approximately 5% CO2 in air.
The in vitro metabolic activation system consisted of a rat liver post-mitochondrial fraction (S9) and an energy-producing system (NADPH plus isocitric acid) (Maron and Ames, 113 Mutation Research (1983) 173-215).
Two days after culture initiation, the cultures were treated with the test compounds. […]
At the end of the incubation period the cultures were centrifuged, the supernatant discarded, and the cells swollen with 75 mM KCl, fixed in methanol:glacial acetic acid (3:1 v/v), dropped onto glass slides and air dried. The slides were stained with 5% Giemsa and air dried and then analyzed for mitotox index, chromosomal aberrations including polyploidy and endoreduplication.

[8] = tested on: Syrian hamster embryo (SHE) cells; experiment: In Vitro Transformation of Syrian Hamster Embryo (SHE) Cells by 7-Day Exposure Screening Assay
[9] = tested on: Salmonella typhimurium histidine auxotrophs TA97a, TA98, TA100, TA102, TA1535, TA1537 and TA1538; details: cited from earlier work
[10] = in the presence of S9 (rat liver extract)

| SMILES | Ames test mutagenicity classification, early screens [1] | Ames test mutagenicity classification [1, 10] | increase in revertants compared to vehicle control (DMSO), TA97a [1] | increase in revertants compared to vehicle control (DMSO), TA98 [1] | increase in revertants compared to vehicle control (DMSO), TA100 [1] | increase in revertants compared to vehicle control (DMSO), TA102 [1] | increase in revertants compared to vehicle control (DMSO), TA1535 [1] | increase in revertants compared to vehicle control (DMSO), TA1537 [1] | increase in revertants compared to vehicle control (DMSO), TA1538 [1] | RPE (relative plating efficiency) ([5]; 0.04 μg/mL) [%] | RPE (relative plating efficiency) ([5]; 0.26 μg/mL) [%] | ability to detect nucleic acid immobilized in a gel by electrophoresis (DNA in a 1% agarose gel) | other results |
| --- | --- | --- | --- | --- | --- | --- | --- | --- | --- | --- | --- | --- | --- |
| CCC[n+]1ccc(/C=C2\Sc3ccccc3N2C)c2ccccc21 [Compound 1] | either mildly mutagenic or non-mutagenic | mild or non-mutagenic; also recorded: Weakly positive | 3.3 | 3.0 | 1.7 | 3.7 | 1.8 | 1.8 | 3.7 | 97 | 25 | able to detect nucleic acid | times less mutagenic compared to ethidium bromide ([1]; Ames test): 4-5 times; survival rate of the minnows ([2]; 250 mg/L, 500 mg/L and 750 mg/L, 96 hour exposure): 100%; hazard classification, acute toxicity to aquatic life ([2]; CCR Title 22): not hazardous; also recorded: non-hazardous to aquatic life; LC50 at 96 h [3]: > 500 µg/mL; compliance with the Clean Water Act and NPDES regulations [4]: complies; MT Frequency (%) ([5]; 0.04 μg/mL): 0.731%; MT Frequency (%) ([5]; 0.05 μg/mL): 0.442%; RPE (relative plating efficiency) ([5]; 0.05 μg/mL): 120%; MT Frequency (%) ([5]; 0.2 μg/mL): 0.313%; RPE (relative plating efficiency) ([5]; 0.2 μg/mL): 85%; MT Frequency (%) ([5]; 0.26 μg/mL): 0.294%; MT Frequency (%) ([5]; 0.3 μg/mL): 0.144%; RPE (relative plating efficiency) ([5]; 0.3 μg/mL): 59%; MT Frequency (%) ([5]; 0.4 μg/mL): 1.304%; RPE (relative plating efficiency) ([5]; 0.4 μg/mL): 66%; MT Frequency (%) ([5]; 0.8 μg/mL): 0.635%; RPE (relative plating efficiency) ([5]; 0.8 μg/mL): 28%; sensitivity of nucleic acid detection in a gel (DNA in a 1% agarose gel; 1% agarose gel, post-stained 30, 60 and 90 minutes, 1 μM in TBE, 62.5 ng to 30.52 pg DNA): at least as sensitive as ethidium bromide; cell permeability in live cells [6]: cell permeable |
| CC[n+]1c(-c2ccccc2)c2cc(N)ccc2c2ccc(N)cc21 [Ethidium bromide, ethidium bromide] |  | mutagenic | 4.4 | 68.0 | 1.6 | 2.0 | 1.4 | 15 | 80 |  |  |  | Chromosomal Aberrations Test, cultured human peripheral blood lymphocytes: result ([7]; with and without S9 metabolic activation): negative; RPE (relative plating efficiency) ([8]; 0.200 μg/mL): 85%; RPE (relative plating efficiency) ([8]; 0.400 μg/mL): 66%; RPE (relative plating efficiency) ([8]; 0.800 μg/mL): 28%; Transformation Test, Syrian hamster embryo (SHE) cells: result ([8]; morphological transformation vs vehicle control): positive; Ames test mutagenicity classification (previously tested, literature) ([9]; McCann et al. 1975, Singer et al. 1999): mutagenic |
| CCCN(CCCN(C)C)c1cc(/C=C2/Sc3ccccc3N2C)c2ccccc2[n+]1-c1ccccc1 [Sybr Green I] |  |  |  |  |  |  |  |  |  |  |  |  | Ames test mutagenicity classification (previously tested, literature) [9]: weak mutagen |
| CN1C=C/C(=C\c2sc3ccccc3[n+]2C)c2ccccc21 [Thiazole orange, thiazole orange] | either mildly mutagenic or non-mutagenic | mutagenic | 6.9 | 6.4 | 2.2 | 4.7 | 1.5 | 17.4 | 7.8 | 97 | 25 | able to detect nucleic acid | Chromosomal Aberrations Test, cultured human peripheral blood lymphocytes: result [7]: negative; Ames test mutagenicity classification ([1]; in the absence of S9, two of the tester strains): mutagenic; Transformation Test, Syrian hamster embryo (SHE) cells: result [5]: positive; RPE (relative plating efficiency) ([5]; 0.15 μg/mL): 52% |
